Measurements published in patent publication US10183030B2, “17α,21-diesters of cortexolone for use in the treatment of tumors” (COSMO TECHNOLOGIES LTD., priority 2014, dated 2019).

Legend:
Format in all cases: cell-based
[1] = system: PSA secretion from LNCaP prostate cancer cells; assay: PSA secretion from LNCaP cells (Elisa); details: Homo sapiens, 48 hours, read-out: IC50, inhibition of PSA secretion
Description: (§1) Prostate-specific antigen, or PSA, is a protein produced by cells of the prostate gland. The PSA test measures the level of PSA in a person's blood. The blood level of PSA is often elevated in men with prostate cancer and it used as surrogate marker to test prostate cancer progression in human population. After the observation that CB-03-10 was able to inhibit in vivo the growth of prostate cancer, the capability of the compound to inhibit in vitro PSA secretion from cancer cells was determined. […] After 48 hours incubation with test compounds, supernatants were harvested and tested with an Elisa assay for PSA and same cells were lysed for cell viability assessment.

LNCaP cells = assay: LNCaP cell viability in the PSA secretion experiment; details: Homo sapiens, 48 hours, same cells as PSA assay
Description: as §1, with “population.” for “population. After the observation that CB-03-10 was able to inhibit in vivo the growth of prostate cancer, the capability of the compound to inhibit in vitro PSA secretion from cancer cells was determined.”

MDA-MB-231 TNBC cells = assay: In vitro proliferation / cytotoxic assay, MDA-MB-231
Description: After 72 hours incubation cell were harvested, lysed and viability determined using the cell titer glow assay for viability.

Row | SMILES | IC50 [1] [µM] | IC50 (LNCaP cells) [µM] | IC50 (MDA-MB-231 TNBC cells; Homo sapiens, MDA-MB-231 (ER−PR−GR++), 72 hours, Table VI, unit inferred, read-out: IC50 on breast cancer cells) [µM] | maximum inhibition of viability (MDA-MB-231 TNBC cells; MDA-MB-231, at 100 μM) [%]
1 | C[C@]12CCC(=O)C=C1CC[C@@H]1[C@@H]2CC[C@@]2(C)[C@H]1CC[C@]2(O)C(=O)CO [Cortexolone] | 612 | 153 |  | 
2 | CNC(=O)c1ccc(N2C(=S)N(c3ccc(C#N)c(C(F)(F)F)c3)C(=O)C2(C)C)cc1F [Enzalutamide] | < 3 |  |  | 
3 | CC#C[C@]1(O)CC[C@H]2[C@@H]3CCC4=CC(=O)CCC4=C3[C@@H](c3ccc(N(C)C)cc3)C[C@@]21C [RU486, Mifepristone] |  |  | 435 | 25
